Target: T1, hMrgpMRGPRX2 (Homo sapiens, UniProt Q96LB1)
T1 construct: expressed in transfected cells
T1 sequence (Q96LB1 1-330): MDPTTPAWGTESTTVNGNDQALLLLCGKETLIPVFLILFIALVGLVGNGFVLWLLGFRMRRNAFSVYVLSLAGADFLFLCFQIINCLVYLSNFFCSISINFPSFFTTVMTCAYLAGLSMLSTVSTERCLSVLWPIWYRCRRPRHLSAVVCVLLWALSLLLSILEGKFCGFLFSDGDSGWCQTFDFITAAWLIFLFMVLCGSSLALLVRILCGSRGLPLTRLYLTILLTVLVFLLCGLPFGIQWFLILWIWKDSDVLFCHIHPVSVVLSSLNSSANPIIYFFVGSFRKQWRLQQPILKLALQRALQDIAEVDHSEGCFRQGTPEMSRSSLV
Assay: FLIPR intracellular calcium mobilization, antagonist activity in recombinant hMrgpMRGPRX2 expressing cells
Assay type: cell-based
Conditions: read-out: Human MrgprX2 Antagonist pIC50 (converted)
Description: Potent and selective hMrgpMRGPRX2 compounds have been generated from compounds identified during a high throughput screening (HTS) campaign and followed up with cycles of structure activity based medicinal chemistry efforts. These compounds were characterized in recombinant hMrgpMRGPRX2 expressing cells for their antagonist activity and the potency was confirmed in the human mast cell line LAD-2, where the target is endogenously expressed. The assays used to determine potencies are functional read-out looking at intracellular calcium mobilization using the FLIPR™ technology. In these FLIPR assays, we test the identified compounds using recombinant cellular systems expressing mouse MrgprB2, mouse MrgprA1, gerbil MrgpMRGPRX2 orthologue, Chinese hamster MrgpMRGPRX2 orthologue and cynomolgus monkey MrgpMRGPRX2 orthologue, respectively for orthologue activity.

| Compound | IC50 [nM] |
| --- | --- |
| CC1(C)C(C(=O)Nc2cc(N3CCCC3)ccn2)C1(C)C [Compound E146, 2,2,3,3-tetramethyl-N-(4-pyrrolidin-1-yl-2-pyridyl)cyclopropanecarboxamide] | 7940 |
| CC1(C)C(C(=O)Nc2cc(Oc3cncc(F)c3)ccn2)C1(C)C [Compound E147, N-[4-[(5-fluoro-3-pyridyl)oxy]-2-pyridyl]-2,2,3,3-tetramethyl-cyclopropanecarboxamide] | 7.94 |
| CC1(C)C(C(=O)Nc2cc(Oc3ccc(F)nc3)ccn2)C1(C)C [Compound E148, N-[4-[(6-fluoro-3-pyridyl)oxy]-2-pyridyl]-2,2,3,3-tetramethyl-cyclopropanecarboxamide] | 30.2 |
| CC1(C)C(C(=O)Nc2cc(OCC(F)(F)F)ccn2)C1(C)C [Compound E149, 2,2,3,3-tetramethyl-N-[4-(2,2,2-trifluoroethoxy)-2-pyridyl]cyclopropanecarboxamide] | 2000 |
| CCN(C[C@@H](O)C(F)(F)F)C(=O)Nc1cc(Oc2ccc(F)c(F)c2)ccn1 [Compound E150, 3-[4-(3,4-difluorophenoxy)-2-pyridyl]-1-ethyl-1-[(2R)-3,3,3-trifluoro-2-hydroxy-propyl]urea] | 3.47 |
| CCN(C[C@@H](O)C(F)(F)F)C(=O)Nc1cc(Oc2ccccc2F)ccn1 [Compound E151] | 3.63 |
| CN(C[C@@H](O)C(F)(F)F)C(=O)Nc1cc(Oc2ccc(F)c(F)c2)ccn1 [Compound E152] | 263 |
| Cc1cnc(NC(=O)N(C)C[C@@H](O)C(F)(F)F)cc1Oc1ccc(F)c(F)c1 [Compound E153] | 245 |
| CCN(C[C@@H](O)C(F)(F)F)C(=O)Nc1cc(Oc2cccc(F)c2)ccn1 [Compound E154] | 1.29 |
| CCN(C[C@@H](O)C(F)(F)F)C(=O)Nc1cc(Oc2ccc(F)cc2)ccn1 [Compound E155] | 25.1 |
| CCN(C[C@@H](O)C(F)(F)F)C(=O)Nc1cc(Oc2cccc(C#N)c2)ccn1 [Compound E156] | 1550 |
| CCN(C[C@@H](O)C(F)(F)F)C(=O)Nc1cc(Oc2ccc(C#N)cc2)ccn1 [Compound E157] | 1580 |
| CCN(C[C@@H](O)C(F)(F)F)C(=O)Nc1cc(Oc2ccccc2C#N)ccn1 [Compound E158] | 17.8 |
| CCN(C[C@@H](O)C(F)(F)F)C(=O)Nc1cc(Oc2ccc(F)cc2F)ccn1 [Compound E159] | 14.1 |
| CN(C[C@@](C)(O)C(F)(F)F)C(=O)Nc1cc(Oc2cccc(F)c2)ccn1 [Compound E160] | 42.7 |
| CCN(C[C@@H](O)C(F)(F)F)C(=O)Nc1cc(Oc2cccc(F)c2)c(F)cn1 [Compound E161] | 0.891 |
| CCN(C[C@@H](O)C(F)(F)F)C(=O)Nc1cc(Oc2cncc(F)c2)ccn1 [Compound E162, 1-ethyl-3-[4-[(5-fluoro-3-pyridyl)oxy]-2-pyridyl]-1-[(2R)-3,3,3-trifluoro-2-hydroxy-propyl]urea] | 19.1 |
| CCN(C[C@@H](O)C(F)(F)F)C(=O)Nc1cc(Oc2cc(F)cc(F)c2)ccn1 [Compound E163, 3-[4-(3,5-difluorophenoxy)-2-pyridyl]-1-ethyl-1-[(2R)-3,3,3-trifluoro-2-hydroxy-propyl]urea] | 0.575 |
| CC(C)C(=O)Nc1ccc(-c2ccccc2)cn1 [Compound E164, 2-methyl-N-(5-phenyl-2-pyridyl)propanamide] | 251 |
| CC(C)C(=O)Nc1ccc(-c2ccc(F)cc2)cn1 [Compound E165] | 1260 |
| CC(C)C(=O)Nc1ccc(-c2cccc(F)c2)cn1 [Compound E166] | 63.1 |
| CC(C)C(=O)Nc1ccc(-c2ccccc2F)cn1 [Compound E167] | 316 |

| Compound | IC50 [nM] |
| --- | --- |
| CC(C)C(=O)Nc1cc(-c2ccccc2)ccn1 [Compound E168] | 7940 |
| COc1ccccc1-c1ccc(NC(=O)C(C)C)nc1 [Compound E169] | 2000 |
| CC(C)C(=O)Nc1ccc(-c2cccc(C#N)c2)cn1 [Compound E170] | 200 |
| COc1cccc(-c2ccc(NC(=O)C(C)C)nc2)c1 [Compound E171] | 316 |
| COc1ccc(-c2ccc(NC(=O)C(C)C)nc2)cc1 [Compound E172] | 316 |
| CC(C)C(=O)Nc1ccc(-c2cc(F)cc(F)c2)cn1 [Compound E173] | 31.6 |
| CC(C)C(=O)Nc1ccc(-c2cc(F)cc(C#N)c2)cn1 [Compound E174] | 100 |
| CC1(C)C(C(=O)Nc2ccc(-c3cn[nH]c3)cn2)C1(C)C [Compound E175] | 2510 |
| CC1(C)C(C(=O)Nc2ccc(-c3ccn[nH]3)cn2)C1(C)C [Compound E176] | 120 |
| CC(C)C(=O)Nc1ccc(C2CCCC2)cn1 [Compound E177, N-(5-cyclopentyl-2-pyridyl)-2-methyl-propanamide] | 6310 |
| CC(C)(C#N)C(=O)Nc1ccc(-c2cc(F)cc(F)c2)cn1 [Compound E178, 2-cyano-N-[5-(3,5-difluorophenyl)-2-pyridyl]-2-methyl-propanamide] | 1260 |
| O=C(Nc1ccc(-c2cc(F)cc(F)c2)cn1)C1CC1 [Compound E179] | 200 |
| CC1(C)CC1C(=O)Nc1ccc(-c2cc(F)cc(F)c2)cn1 (centres unmarked) [Compound E180] | 12.6 |
| CC(C)C(=O)Nc1ccc(Cc2ccccc2)cn1 [Compound E181] | 6310 |
| CC1(C)CC1C(=O)Nc1ccc(-c2cc(F)ccc2F)cn1 (centres unmarked) [Compound E182] | 25.1 |
| CC1(C)CC1C(=O)Nc1ccc(-c2cccc(F)c2F)cn1 (centres unmarked) [Compound E183] | 19.5 |
| CC1(C)C(C(=O)Nc2ccc(-c3cncc(F)c3)cn2)C1(C)C [Compound E184] | 70.8 |
| Cn1cc(-c2ccc(NC(=O)C3C(C)(C)C3(C)C)nc2)cn1 [Compound E185] | 93.3 |
| CC1(C)C(C(=O)Nc2ccc(C3CCOC3)cn2)C1(C)C (centres unmarked) [Compound E186] | 186 |
| CC1(C)C(C(=O)Nc2ccc(C3=COCC3)cn2)C1(C)C [Compound E187] | 14.5 |
| CC1(C)CC1C(=O)Nc1ccc(-c2cc(F)cc(C#N)c2)cn1 (centres unmarked) [Compound E188] | 50.1 |
| Cn1ncc(-c2ccc(NC(=O)C3C(C)(C)C3(C)C)nc2)n1 [Compound E189, 2,2,3,3-tetramethyl-N-[5-(2-methyltriazol-4-yl)-2-pyridyl]cyclopropanecarboxamide] | 1170 |

| Compound | IC50 [nM] |
| --- | --- |
| Cn1cc(-c2ccc(NC(=O)C3C(C)(C)C3(C)C)nc2)nn1 [Compound E190, 2,2,3,3-tetramethyl-N-[5-(1-methyltriazol-4-yl)-2-pyridyl]cyclopropanecarboxamide] | 631 |
| C[C@H](O)CN(C)C(=O)Nc1ccc(-c2cc(F)cc(F)c2)cn1 [Compound E191, 3-[5-(3,5-difluorophenyl)-2-pyridyl]-1-[(2S)-2-hydroxypropyl]-1-methyl-urea] | 2510 |
| CCN(C[C@@H](O)C(F)(F)F)C(=O)Nc1ccc(-c2cc(F)cc(C#N)c2)cn1 [Compound E192] | 1200 |
| CN(C)C(=O)Nc1ccc(-c2cc(F)cc(F)c2)cn1 [Compound E193] | 6310 |
| CCN(C[C@@H](O)C(F)(F)F)C(=O)Nc1ccc(-c2cc(F)cc(F)c2)cn1 [Compound E194] | 214 |
| CCN(C[C@H](C)O)C(=O)Nc1ccc(-c2ccccc2)cn1 [Compound E195] | 5010 |
| CCN(C[C@@H](O)C(F)(F)F)C(=O)Nc1ccc(F)cn1 [Compound E196] | 851 |
| CCN(C[C@@H](O)C(F)(F)F)C(=O)Nc1ccc(-c2ncco2)cn1 [Compound E197, 1-ethyl-3-(5-oxazol-2-yl-2-pyridyl)-1-[(2R)-3,3,3-trifluoro-2-hydroxy-propyl]urea] | 3090 |
| CC1(C)C(C(=O)Nc2ccc(-c3ncco3)cn2)C1(C)C [Compound E198, 2,2,3,3-tetramethyl-N-(5-oxazol-2-yl-2-pyridyl)cyclopropanecarboxamide] | 33.9 |
| CC1(C)C(C(=O)Nc2ccc(-n3cccn3)cn2)C1(C)C [Compound E199, 2,2,3,3-tetramethyl-N-(5-pyrazol-1-yl-2-pyridyl)cyclopropanecarboxamide] | 33.9 |
| CC1(C)C(C(=O)Nc2ccc(I)cn2)C1(C)C [Compound E200, N-(5-iodo-2-pyridyl)-2,2,3,3-tetramethyl-cyclopropanecarboxamide] | 14.8 |
| CN(C)c1ccc(NC(=O)C2C(C)(C)C2(C)C)nc1 [Compound E201, N-[5-(dimethylamino)-2-pyridyl]-2,2,3,3-tetramethyl-cyclopropanecarboxamide] | 162 |
| CC(C)C(=O)Nc1ccc(Br)cn1 [Compound E202] | 6310 |
| CC1(C)C(C(=O)Nc2cc(C(F)(F)F)ccn2)C1(C)C [Compound E203] | 1580 |
| CC1(C)C(C(=O)Nc2ccc(Cl)cn2)C1(C)C [Compound E204] | 1.58 |
| CC1(C)C(C(=O)Nc2ccc(C(F)(F)F)cn2)C1(C)C [Compound E205] | 501 |
| CC1(C)C(C(=O)Nc2ccc(C#N)cn2)C1(C)C [Compound E206] | 251 |
| CC1(C)C(C(=O)Nc2cc(C#N)ccn2)C1(C)C [Compound E207] | 3160 |
| CC1(C)CC1C(=O)Nc1cc(Cl)ccn1 (centres unmarked) [Compound E208] | 3160 |
| C[C@H](C(=O)Nc1ccccn1)c1ccccc1 [Compound E209] | 2510 |
| C[C@@H](C(=O)Nc1ccccn1)c1ccccc1 [Compound E210] | 2000 |

— patent US20230027929A1, “MrgprX2 Antagonists and Uses Thereof” (Dermira, Inc., priority 2019, published 2023)
